Measured values: the kinase profiling compilation of Christmann-Franck et al. (2016)

Legend:
Experiment in all cases: radiometric filter-binding kinase assay
EPHB2 (human) = EPHB2 (human) (UniProt P29323)
MARK3 (human) = MARK3 (human) (UniProt P27448)
NTRK1 (human) = NTRK1 (human) (UniProt P04629); conditions: compound 1.0 µM
MAPK14 (human) = MAPK14 (human) (UniProt Q16539); conditions: compound 1.0 µM
MAP2K1 (human) = MAP2K1 (human) (UniProt Q02750); conditions: compound 1.0 µM
[1] = target: STK11 CAB39 STRADA (human) (UniProt Q9Y376+Q7RTN6+Q15831)
MKNK2 (human) = MKNK2 (human) (UniProt Q9HBH9)
MAPK9 (human) = MAPK9 (human) (UniProt P45984)
DYRK1A (human) = DYRK1A (human) (UniProt Q13627)
RPS6KA1 KD1 KD2 (human) = RPS6KA1 KD1 KD2 (human) (UniProt Q15418)
NEK2 (human) = NEK2 (human) (UniProt P51955)
MARK2 (human) = MARK2 (human) (UniProt Q7KZI7)
IKBKB (human) = IKBKB (human) (UniProt O14920)
DYRK3 (human) = DYRK3 (human) (UniProt O43781)
MARK1 (human) = MARK1 (human) (UniProt Q9P0L2)
PIM1 (human) = PIM1 (human) (UniProt P11309)
JAK2 JH1 JH2 (human) = JAK2 JH1 JH2 (human) (UniProt O60674); conditions: compound 10.0 µM
CaMK1 (human) = CaMK1 (human) (UniProt Q14012)
STK3 (human) = STK3 (human) (UniProt Q13188)
NUAK1 (human) = NUAK1 (human) (UniProt O60285)
PAK4 (human) = PAK4 (human) (UniProt O96013)
IKBKE (human) = IKBKE (human) (UniProt Q14164)
MAPK3 (human) = MAPK3 (human) (UniProt P27361); conditions: compound 10.0 µM
TTK (human) = TTK (human) (UniProt P33981)
CSNK1D (human) = CSNK1D (human) (UniProt P48730)
MKNK1 (human) = MKNK1 (human) (UniProt Q9BUB5)
MAP3K11 (human) = MAP3K11 (human) (UniProt Q16584)
IRAK4 (human) = IRAK4 (human) (UniProt Q9NWZ3)
NEK6 (human) = NEK6 (human) (UniProt Q9HC98)
MAPK8 (human) = MAPK8 (human) (UniProt P45983)
MAPKAPK2 (human) = MAPKAPK2 (human) (UniProt P49137); conditions: compound 10.0 µM
TBK1 (human) = TBK1 (human) (UniProt Q9UHD2); conditions: compound 1.0 µM
[2] = tested on: AKT1 (human), P31749 [S473D]
CHEK2 (human) = CHEK2 (human) (UniProt O96017)
[3] = tested on: RPS6KB1 (human), P23443 [T412E]
RPS6KB1 (human), P23443 [T412E], sequence (P23443 whole entry T412E, looked up): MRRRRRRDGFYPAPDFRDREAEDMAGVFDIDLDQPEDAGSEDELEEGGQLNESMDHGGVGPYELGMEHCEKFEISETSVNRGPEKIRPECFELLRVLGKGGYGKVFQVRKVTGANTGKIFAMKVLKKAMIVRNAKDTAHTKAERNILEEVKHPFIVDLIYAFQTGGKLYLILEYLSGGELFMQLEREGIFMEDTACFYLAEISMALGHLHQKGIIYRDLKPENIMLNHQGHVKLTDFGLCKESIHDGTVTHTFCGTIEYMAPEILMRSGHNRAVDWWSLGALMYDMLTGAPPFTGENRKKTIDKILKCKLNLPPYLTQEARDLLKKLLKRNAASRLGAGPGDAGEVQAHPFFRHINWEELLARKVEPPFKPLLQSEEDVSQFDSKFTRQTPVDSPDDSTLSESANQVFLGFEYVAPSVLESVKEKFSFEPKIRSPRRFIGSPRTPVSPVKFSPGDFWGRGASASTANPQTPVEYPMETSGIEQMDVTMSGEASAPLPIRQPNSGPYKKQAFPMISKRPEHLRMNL

CaMK1 (human), sequence (Q14012 whole entry, looked up): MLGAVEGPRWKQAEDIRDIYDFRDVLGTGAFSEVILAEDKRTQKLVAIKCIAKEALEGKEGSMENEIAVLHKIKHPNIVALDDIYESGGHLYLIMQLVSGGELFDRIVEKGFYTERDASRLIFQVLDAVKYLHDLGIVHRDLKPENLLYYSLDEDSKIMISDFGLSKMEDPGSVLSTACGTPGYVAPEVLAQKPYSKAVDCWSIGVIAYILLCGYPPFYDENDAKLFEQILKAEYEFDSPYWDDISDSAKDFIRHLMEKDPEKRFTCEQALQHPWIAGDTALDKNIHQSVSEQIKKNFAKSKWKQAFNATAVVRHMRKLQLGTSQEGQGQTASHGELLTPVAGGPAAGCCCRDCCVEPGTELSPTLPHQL
AKT1 (human), P31749 [S473D], sequence (P31749 whole entry S473D, looked up): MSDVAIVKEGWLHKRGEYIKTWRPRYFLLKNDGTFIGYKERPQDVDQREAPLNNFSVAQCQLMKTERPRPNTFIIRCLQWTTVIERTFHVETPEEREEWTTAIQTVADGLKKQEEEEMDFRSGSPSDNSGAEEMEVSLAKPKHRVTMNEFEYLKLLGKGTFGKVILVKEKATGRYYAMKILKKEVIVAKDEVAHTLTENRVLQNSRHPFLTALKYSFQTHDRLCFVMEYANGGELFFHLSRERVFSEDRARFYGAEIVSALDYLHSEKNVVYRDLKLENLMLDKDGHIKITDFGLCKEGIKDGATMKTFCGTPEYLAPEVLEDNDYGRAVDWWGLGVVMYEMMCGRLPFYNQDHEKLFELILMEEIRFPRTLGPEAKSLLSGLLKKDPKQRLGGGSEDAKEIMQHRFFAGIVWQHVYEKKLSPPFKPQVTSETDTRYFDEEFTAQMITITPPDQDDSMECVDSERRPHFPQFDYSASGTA
MAP3K11 (human), sequence (Q16584 whole entry, looked up): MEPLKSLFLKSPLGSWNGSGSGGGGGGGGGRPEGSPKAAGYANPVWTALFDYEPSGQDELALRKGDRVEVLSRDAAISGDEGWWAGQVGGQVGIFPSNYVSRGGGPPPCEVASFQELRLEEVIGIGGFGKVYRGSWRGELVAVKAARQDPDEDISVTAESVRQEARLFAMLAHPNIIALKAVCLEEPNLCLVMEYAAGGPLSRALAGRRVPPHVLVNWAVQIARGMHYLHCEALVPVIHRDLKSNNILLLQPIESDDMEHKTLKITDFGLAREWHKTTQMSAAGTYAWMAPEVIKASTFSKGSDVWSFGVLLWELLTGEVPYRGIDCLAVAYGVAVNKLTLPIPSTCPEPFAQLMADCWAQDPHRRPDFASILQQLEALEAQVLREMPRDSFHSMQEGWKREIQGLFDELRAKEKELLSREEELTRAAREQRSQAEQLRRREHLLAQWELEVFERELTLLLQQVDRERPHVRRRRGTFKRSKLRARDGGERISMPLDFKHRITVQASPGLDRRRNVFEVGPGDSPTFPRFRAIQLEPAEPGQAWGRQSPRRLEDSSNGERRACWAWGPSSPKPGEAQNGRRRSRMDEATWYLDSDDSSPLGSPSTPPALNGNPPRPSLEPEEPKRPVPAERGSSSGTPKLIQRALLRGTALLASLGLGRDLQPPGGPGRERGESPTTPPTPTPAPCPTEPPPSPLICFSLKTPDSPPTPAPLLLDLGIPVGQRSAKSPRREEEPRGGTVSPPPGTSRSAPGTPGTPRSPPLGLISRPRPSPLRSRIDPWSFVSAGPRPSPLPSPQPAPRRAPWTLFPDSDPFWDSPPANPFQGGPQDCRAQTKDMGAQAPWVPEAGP
STK11 CAB39 STRADA (human), sequence (Q15831 whole entry, looked up): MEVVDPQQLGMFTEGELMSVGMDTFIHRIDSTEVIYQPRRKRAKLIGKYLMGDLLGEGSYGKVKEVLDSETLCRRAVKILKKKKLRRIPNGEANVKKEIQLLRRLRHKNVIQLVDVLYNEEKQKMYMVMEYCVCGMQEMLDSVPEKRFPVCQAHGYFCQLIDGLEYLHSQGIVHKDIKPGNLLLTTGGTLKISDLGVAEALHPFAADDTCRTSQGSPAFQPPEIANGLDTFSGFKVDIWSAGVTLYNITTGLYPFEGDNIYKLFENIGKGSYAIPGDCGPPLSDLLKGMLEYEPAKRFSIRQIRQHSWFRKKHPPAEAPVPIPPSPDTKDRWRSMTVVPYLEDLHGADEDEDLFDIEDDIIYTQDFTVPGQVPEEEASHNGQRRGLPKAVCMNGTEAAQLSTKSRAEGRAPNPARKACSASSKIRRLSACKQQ
STK11 CAB39 STRADA (human), sequence (Q7RTN6 whole entry, looked up): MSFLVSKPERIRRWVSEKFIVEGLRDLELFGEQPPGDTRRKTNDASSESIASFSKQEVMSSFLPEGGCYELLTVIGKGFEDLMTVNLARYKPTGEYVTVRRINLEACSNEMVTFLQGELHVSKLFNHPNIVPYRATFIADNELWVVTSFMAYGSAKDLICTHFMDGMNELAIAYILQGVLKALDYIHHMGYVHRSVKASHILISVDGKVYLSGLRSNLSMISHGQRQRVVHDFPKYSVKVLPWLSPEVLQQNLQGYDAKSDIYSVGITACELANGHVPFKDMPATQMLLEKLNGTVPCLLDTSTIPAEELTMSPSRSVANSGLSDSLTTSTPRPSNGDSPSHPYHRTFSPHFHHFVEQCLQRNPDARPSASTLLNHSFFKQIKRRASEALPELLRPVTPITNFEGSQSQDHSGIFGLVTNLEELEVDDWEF
STK11 CAB39 STRADA (human), sequence (Q9Y376 whole entry, looked up): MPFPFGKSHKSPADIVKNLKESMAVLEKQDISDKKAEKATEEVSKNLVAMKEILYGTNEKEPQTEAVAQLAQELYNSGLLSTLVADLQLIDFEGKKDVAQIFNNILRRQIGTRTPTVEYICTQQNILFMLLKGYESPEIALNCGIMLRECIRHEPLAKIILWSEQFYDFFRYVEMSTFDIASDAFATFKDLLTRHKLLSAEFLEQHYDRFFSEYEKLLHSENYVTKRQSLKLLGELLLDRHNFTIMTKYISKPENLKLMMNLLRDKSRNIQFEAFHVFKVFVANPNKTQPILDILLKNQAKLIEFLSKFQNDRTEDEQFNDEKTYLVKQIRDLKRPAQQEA
MARK3 (human), sequence (P27448 whole entry, looked up): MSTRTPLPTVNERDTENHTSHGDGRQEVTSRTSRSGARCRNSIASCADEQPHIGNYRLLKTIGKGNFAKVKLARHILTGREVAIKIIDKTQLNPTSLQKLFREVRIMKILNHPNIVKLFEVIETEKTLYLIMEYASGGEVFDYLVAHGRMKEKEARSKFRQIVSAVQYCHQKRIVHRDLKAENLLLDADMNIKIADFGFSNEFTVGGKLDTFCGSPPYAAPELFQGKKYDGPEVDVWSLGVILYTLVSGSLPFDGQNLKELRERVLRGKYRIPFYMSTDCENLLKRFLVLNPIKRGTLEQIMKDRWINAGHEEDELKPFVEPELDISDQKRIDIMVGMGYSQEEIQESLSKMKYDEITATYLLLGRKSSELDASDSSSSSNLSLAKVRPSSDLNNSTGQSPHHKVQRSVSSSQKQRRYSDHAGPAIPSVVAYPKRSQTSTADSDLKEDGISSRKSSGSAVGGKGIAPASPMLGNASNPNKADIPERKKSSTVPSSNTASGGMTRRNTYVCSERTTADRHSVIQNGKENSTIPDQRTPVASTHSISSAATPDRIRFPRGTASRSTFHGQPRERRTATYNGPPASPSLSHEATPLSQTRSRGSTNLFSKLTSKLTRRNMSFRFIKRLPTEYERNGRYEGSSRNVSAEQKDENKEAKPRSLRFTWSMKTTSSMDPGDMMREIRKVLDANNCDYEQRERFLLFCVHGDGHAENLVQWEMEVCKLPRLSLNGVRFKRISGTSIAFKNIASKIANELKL
CHEK2 (human), sequence (O96017 whole entry, looked up): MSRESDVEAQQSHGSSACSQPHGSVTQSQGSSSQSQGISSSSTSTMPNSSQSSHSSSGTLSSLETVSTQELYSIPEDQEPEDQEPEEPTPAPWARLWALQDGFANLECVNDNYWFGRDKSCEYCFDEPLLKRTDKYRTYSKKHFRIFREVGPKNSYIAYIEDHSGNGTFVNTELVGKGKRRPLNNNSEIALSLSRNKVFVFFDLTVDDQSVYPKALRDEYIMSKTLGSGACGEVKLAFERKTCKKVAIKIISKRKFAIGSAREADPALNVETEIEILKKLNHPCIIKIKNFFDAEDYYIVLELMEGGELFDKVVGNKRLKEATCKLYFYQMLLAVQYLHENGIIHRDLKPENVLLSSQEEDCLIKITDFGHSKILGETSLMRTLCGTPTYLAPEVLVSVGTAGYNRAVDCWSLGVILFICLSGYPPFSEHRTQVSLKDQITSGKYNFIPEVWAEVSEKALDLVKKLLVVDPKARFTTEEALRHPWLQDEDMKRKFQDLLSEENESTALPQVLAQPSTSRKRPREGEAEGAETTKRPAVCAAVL

residual activity (EPHB2 (human); compound 1.0 µM): 122%
residual activity (EPHB2 (human); compound 10.0 µM): 102%
residual activity (MARK3 (human); compound 1.0 µM): 91%
residual activity (MARK3 (human); compound 10.0 µM): 87%
residual activity (NTRK1 (human)): 88%
residual activity (MAPK14 (human)): 105%
residual activity (MAP2K1 (human)): 85%
residual activity ([1]; compound 1.0 µM): 86%
residual activity ([1]; compound 10.0 µM): 85%
residual activity (MKNK2 (human); compound 1.0 µM): 105%
residual activity (MKNK2 (human); compound 10.0 µM): 91%
residual activity (MAPK9 (human); compound 1.0 µM): 90%
residual activity (MAPK9 (human); compound 10.0 µM): 86%
residual activity (DYRK1A (human); compound 1.0 µM): 102%
residual activity (DYRK1A (human); compound 10.0 µM): 85%
residual activity (RPS6KA1 KD1 KD2 (human); compound 1.0 µM): 92%
residual activity (RPS6KA1 KD1 KD2 (human); compound 10.0 µM): 84%
residual activity (NEK2 (human); compound 1.0 µM): 89%
residual activity (NEK2 (human); compound 10.0 µM): 98%
residual activity (MARK2 (human); compound 1.0 µM): 60%
residual activity (MARK2 (human); compound 10.0 µM): 59%
residual activity (IKBKB (human); compound 1.0 µM): 100%
residual activity (IKBKB (human); compound 10.0 µM): 99%
residual activity (DYRK3 (human); compound 1.0 µM): 84%
residual activity (DYRK3 (human); compound 10.0 µM): 65%
residual activity (MARK1 (human); compound 1.0 µM): 96%
residual activity (MARK1 (human); compound 10.0 µM): 104%
residual activity (PIM1 (human); compound 1.0 µM): 83%
residual activity (PIM1 (human); compound 10.0 µM): 66%
residual activity (JAK2 JH1 JH2 (human)): 83%
residual activity (CaMK1 (human); compound 1.0 µM): 98%
residual activity (CaMK1 (human); compound 10.0 µM): 93%
residual activity (STK3 (human); compound 1.0 µM): 73%
residual activity (STK3 (human); compound 10.0 µM): 75%
residual activity (NUAK1 (human); compound 1.0 µM): 95%
residual activity (NUAK1 (human); compound 10.0 µM): 73%
residual activity (PAK4 (human); compound 1.0 µM): 85%
residual activity (PAK4 (human); compound 10.0 µM): 67%
residual activity (IKBKE (human); compound 1.0 µM): 138%
residual activity (IKBKE (human); compound 10.0 µM): 100%
residual activity (MAPK3 (human)): 95%
residual activity (TTK (human); compound 1.0 µM): 89%
residual activity (TTK (human); compound 10.0 µM): 87%
residual activity (CSNK1D (human); compound 1.0 µM): 79%
residual activity (CSNK1D (human); compound 10.0 µM): 93%
residual activity (MKNK1 (human); compound 1.0 µM): 106%
residual activity (MKNK1 (human); compound 10.0 µM): 95%
residual activity (MAP3K11 (human); compound 1.0 µM): 80%
residual activity (MAP3K11 (human); compound 10.0 µM): 47%
residual activity (IRAK4 (human); compound 1.0 µM): 90%
residual activity (IRAK4 (human); compound 10.0 µM): 98%
residual activity (NEK6 (human); compound 1.0 µM): 100%
residual activity (NEK6 (human); compound 10.0 µM): 99%
residual activity (MAPK8 (human); compound 1.0 µM): 95%
residual activity (MAPK8 (human); compound 10.0 µM): 103%
residual activity (MAPKAPK2 (human)): 44%
residual activity (TBK1 (human)): 127%
residual activity ([2]; compound 1.0 µM): 97%
residual activity ([2]; compound 10.0 µM): 95%
residual activity (CHEK2 (human); compound 1.0 µM): 101%
residual activity (CHEK2 (human); compound 10.0 µM): 60%
residual activity ([3]; compound 1.0 µM): 99%
residual activity ([3]; compound 10.0 µM): 99%
Structure (SMILES): Cc1nc(-c2ccc(OCC(C)C)c(C#N)c2)sc1C(=O)O
